This is an account of results in patent US9309301B2 (priority 2011, dated 2016).

Read-outs that look alike come from different tables or passages of the source. Square brackets hold non-standard residues; d marks the D form. Primed or numbered codes have the meaning given here. Ends that are not written are not given here. 40K‑TE PEG(4) = 40 kDa PEG bound to Cys thiol via thioether (from iodoacetyl-PEG); Aib = CC(C)(N)C(=O)O

Holding throughout (type): cell-based
The target of experiment [1] is T1, GIP receptor (Homo sapiens, UniProt P48546).
T1 construct: expressed in transfected cells; host or cells: HEK293
T1 sequence (P48546 22-466): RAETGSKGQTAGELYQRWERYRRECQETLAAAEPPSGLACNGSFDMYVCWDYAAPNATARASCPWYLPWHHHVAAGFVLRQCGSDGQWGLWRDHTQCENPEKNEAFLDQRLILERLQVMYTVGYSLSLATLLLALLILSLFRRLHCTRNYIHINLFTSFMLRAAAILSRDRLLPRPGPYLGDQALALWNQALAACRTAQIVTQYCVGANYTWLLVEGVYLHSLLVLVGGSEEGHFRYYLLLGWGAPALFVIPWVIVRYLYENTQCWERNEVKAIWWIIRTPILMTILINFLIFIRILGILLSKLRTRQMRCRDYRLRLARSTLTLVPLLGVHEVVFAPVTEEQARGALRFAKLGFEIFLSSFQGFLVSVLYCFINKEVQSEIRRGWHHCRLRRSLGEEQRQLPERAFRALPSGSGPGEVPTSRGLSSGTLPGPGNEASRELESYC
In words: in vitro agonist activity at the GIP receptor (cAMP induction, luciferase reporter, HEK293 cells). Conditions: CRE-luciferase reporter. As to the method:
It is understood that a lower EC50 indicates higher activity or potency at the receptor. […] The ability of each peptide to induce cAMP was measured in a firefly luciferase-based reporter assay. […] At the end of the incubation, 100 μL of LucLite luminescence substrate reagent (Perkin Elmer, Wellesley, Mass.) were added to each well. […] In some instances, the in vitro agonist activity at the GIP receptor was also tested.

The target in experiment [2] is T2, glucagon receptor (Homo sapiens, UniProt P47871).
T2 construct: expressed in transfected cells; host or cells: HEK293
The experiment in a line: cAMP induction, firefly luciferase reporter assay in HEK293 cells co-transfected with glucagon receptor. As to the method:
(§1) The ability of each peptide to induce cAMP was measured in a firefly luciferase-based reporter assay. […] At the end of the incubation, 100 μL of LucLite luminescence substrate reagent (Perkin Elmer, Wellesley, Mass.) were added to each well. […] In some instances, the in vitro agonist activity at the GIP receptor was also tested.

Experiment [3] deals with T3, GLP-1 receptor (Homo sapiens, UniProt P43220).
T3 construct: expressed in transfected cells; host or cells: HEK293
In words: cAMP induction, firefly luciferase reporter assay in HEK293 cells co-transfected with GLP-1 receptor. As to the method:
as §1

Setting [4] is: read-out: EC50 (nM) at glucagon receptor, CRE-luciferase reporter, 5 hours incubation.
Setting [5] is: read-out: EC50 (nM) at GLP-1 receptor, CRE-luciferase reporter, 5 hours incubation.
Setting [6] is: CRE-luciferase reporter, 5 hours incubation.

T2 sequence (P47871 26-477, species assumed): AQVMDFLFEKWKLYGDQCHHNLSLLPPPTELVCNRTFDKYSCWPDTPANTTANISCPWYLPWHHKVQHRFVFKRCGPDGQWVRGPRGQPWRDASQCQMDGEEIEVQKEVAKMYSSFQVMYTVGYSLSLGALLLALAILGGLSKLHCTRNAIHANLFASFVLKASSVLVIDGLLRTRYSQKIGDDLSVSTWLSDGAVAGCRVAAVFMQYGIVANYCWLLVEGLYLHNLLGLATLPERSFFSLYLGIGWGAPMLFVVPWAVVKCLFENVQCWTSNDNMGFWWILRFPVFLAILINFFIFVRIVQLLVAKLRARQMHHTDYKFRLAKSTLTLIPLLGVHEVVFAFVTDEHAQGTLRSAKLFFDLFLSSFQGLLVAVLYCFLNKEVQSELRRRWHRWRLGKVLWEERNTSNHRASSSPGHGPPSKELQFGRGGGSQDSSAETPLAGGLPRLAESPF
T3 sequence (P43220 24-463): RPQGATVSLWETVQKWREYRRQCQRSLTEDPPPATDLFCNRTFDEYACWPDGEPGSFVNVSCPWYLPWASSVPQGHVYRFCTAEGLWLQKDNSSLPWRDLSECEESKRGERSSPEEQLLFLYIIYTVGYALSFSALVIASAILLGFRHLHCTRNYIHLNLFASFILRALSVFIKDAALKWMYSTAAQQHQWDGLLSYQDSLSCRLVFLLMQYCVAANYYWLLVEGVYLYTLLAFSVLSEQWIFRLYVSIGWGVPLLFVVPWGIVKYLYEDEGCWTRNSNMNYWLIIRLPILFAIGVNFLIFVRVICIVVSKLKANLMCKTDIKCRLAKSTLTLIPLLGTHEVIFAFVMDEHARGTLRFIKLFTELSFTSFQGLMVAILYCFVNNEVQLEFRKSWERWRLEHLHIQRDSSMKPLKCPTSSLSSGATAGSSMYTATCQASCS

Consider “13 (H[Aib]QGTFTSDYSKYLDEKRA[Aib]EFVC(PEG 40 kDa)WLLDT-NH2) [compound 13]”, for which, in experiment [1], the “EC50 (nM) at GIP receptor” value is “no activity”. Take “38 (H[Aib]QGTFTSDYSKYLD[Aib]KRA[Aib]EFVC(PEG 40 kDa)WLLDT-NH2) [compound 38]”: the “EC50 (nM) at GIP receptor” value in experiment [1] is “no activity”. Still for that read-out and setting: next, “41 (H[Aib]QGTFTSDYSKYLDEKRA[Aib]EFVC(PEG 40 kDa)WLL[Aib]T-NH2) [compound 41]”: “no activity”; “45 (H[Aib]QGTFTSDYSKYLDEKRA[Aib]EFVC(40K‑TE PEG(4))WLLDT-OH) [compound 45]”: “no activity”; “46 (H[Aib]QGTFTSDYSKYLD[Aib]KRA[Aib]EFVC(PEG 40 kDa)WLLDGGPSSGAPPPS-NH2) [compound 46]”: “no activity”.

In the case of “47 (H[Aib]QGTFTSDYSKYLDEKRA[Aib]EFVC(PEG 40 kDa)WLLDGGPSSGAPPPS-NH2) [compound 47]”, the “EC50 (nM) at GIP receptor” value in experiment [1] was “no activity”. Same read-out and setting: next, “51 (H[Aib]QGTFTSDYSKYLDEKRA[Aib]EFVC(40K‑TE PEG(4))WLL[Aib]GGPSSGAPPPS-NH2) [compound 51]”: “no activity”; “52 (H[Aib]QGTFTSDYSKYLDEK[Aib]AKEFVC(PEG 40 kDa)WLLDT-NH2) [compound 52]”: “no activity”. `CCCCCCCCCCCCCCCC(=O)N[C@@H](CCC(=O)NCCCC[C@H](NC(=O)[C@H](CC(=O)O)NC(=O)[C@H](CO)NC(=O)[C@@H](NC(=O)[C@H](Cc1ccccc1)NC(=O)[C@@H](NC(=O)CNC(=O)[C@H](CCC(N)=O)NC(=O)[C@@H](CO)NC(=O)[C@@H](N)Cc1c[nH]cn1)[C@@H](C)O)[C@@H](C)O)C(=O)N[C@@H](CO)C(=O)N[C@@H](CCCCN)C(=O)N[C@@H](Cc1ccc(O)cc1)C(=O)N[C@@H](CC(C)C)C(=O)N[C@@H](CC(=O)O)C(=O)N[C@@H](CCC(=O)O)C(=O)N[C@@H](CCCNC(=N)N)C(=O)N[C@@H](C)C(=O)N[C@@H](C)C(=O)N[C@@H](CCC(N)=O)C(=O)N[C@@H](CC(=O)O)C(=O)N[C@@H](Cc1ccccc1)C(=O)N[C@H](C(=O)N[C@@H](CCC(N)=O)C(=O)N[C@@H](Cc1c[nH]c2ccccc12)C(=O)N[C@@H](CC(C)C)C(=O)N[C@@H](CC(C)C)C(=O)N[C@@H](CC(=O)O)C(=O)NCC(=O)N[C@@H](CCCNC(=N)N)C(=O)NCC(N)=O)C(C)C)C(=O)O` [compound 19]: the figures for the concentration for a half-maximal effect (EC50) in experiment [2] (setting [4]), in experiment [3] (setting [5]) and in experiment [1] were 0.004 nM, 0.002 nM and 0.812 nM, respectively. Regarding `CC(C)C[C@H](NC(=O)[C@H](Cc1ccc(O)cc1)NC(=O)[C@H](CCCCN)NC(=O)[C@H](CO)NC(=O)[C@H](CCCCNC(=O)CC[C@H](NC(=O)CC12CC3CC(CC(C3)C1)C2)C(=O)O)NC(=O)[C@H](CC(=O)O)NC(=O)[C@H](CO)NC(=O)[C@@H](NC(=O)[C@H](Cc1ccccc1)NC(=O)[C@@H](NC(=O)CNC(=O)[C@H](CCC(N)=O)NC(=O)[C@@H](CO)NC(=O)[C@@H](N)Cc1c[nH]cn1)[C@@H](C)O)[C@@H](C)O)C(=O)N[C@@H](CC(=O)O)C(=O)N[C@@H](CCC(=O)O)C(=O)N[C@@H](CCCNC(=N)N)C(=O)N[C@@H](C)C(=O)N[C@@H](C)C(=O)N[C@@H](CCC(N)=O)C(=O)N[C@@H](CC(=O)O)C(=O)N[C@@H](Cc1ccccc1)C(=O)N[C@H](C(=O)N[C@@H](CCC(N)=O)C(=O)N[C@@H](Cc1c[nH]c2ccccc12)C(=O)N[C@@H](CC(C)C)C(=O)N[C@@H](CC(C)C)C(=O)N[C@@H](CC(=O)O)C(=O)N[C@H](C(N)=O)[C@@H](C)O)C(C)C` [compound 48], the EC50 came out at 0.026 nM in experiment [2] (setting [4]) and 0.039 nM in experiment [3] (setting [5]).

With `CC(C)C[C@H](NC(=O)[C@H](CC(C)C)NC(=O)[C@H](Cc1c[nH]c2ccccc12)NC(=O)[C@H](CCC(N)=O)NC(=O)[C@@H](NC(=O)[C@H](Cc1ccccc1)NC(=O)[C@H](CC(=O)O)NC(=O)[C@H](CCC(N)=O)NC(=O)[C@H](C)NC(=O)[C@H](C)NC(=O)[C@H](CCCNC(=N)N)NC(=O)[C@H](CCC(=O)O)NC(=O)[C@H](CC(=O)O)NC(=O)[C@H](CC(C)C)NC(=O)[C@H](Cc1ccc(O)cc1)NC(=O)[C@H](CCCCN)NC(=O)[C@H](CO)NC(=O)[C@H](CCCCNC(=O)CCC(=O)c1ccccc1)NC(=O)[C@H](CC(=O)O)NC(=O)[C@H](CO)NC(=O)[C@@H](NC(=O)[C@H](Cc1ccccc1)NC(=O)[C@@H](NC(=O)CNC(=O)[C@H](CCC(N)=O)NC(=O)[C@@H](CO)NC(=O)[C@@H](N)Cc1c[nH]cn1)[C@@H](C)O)[C@@H](C)O)C(C)C)C(=O)N[C@@H](CC(=O)O)C(=O)NCC(=O)NCC(=O)N1CCC[C@H]1C(=O)N[C@@H](CO)C(=O)N[C@@H](CO)C(=O)NCC(=O)N[C@@H](C)C(=O)N1CCC[C@H]1C(=O)N1CCC[C@H]1C(=O)N1CCC[C@H]1C(=O)N[C@@H](CO)C(N)=O` [compound 49], the figures for the half-maximal effective concentration (EC50) in experiment [2] (setting [6]) and in experiment [3] (setting [6]) were 0.063 nM and 0.01 nM, respectively. Take `CCCCCCCCCCCCCCCC(=O)N[C@@H](CCC(=O)NCCCC[C@H](NC(=O)[C@H](CC(=O)O)NC(=O)[C@H](CO)NC(=O)[C@@H](NC(=O)[C@H](Cc1ccccc1)NC(=O)[C@@H](NC(=O)CNC(=O)[C@H](CCC(N)=O)NC(=O)[C@@H](CO)NC(=O)[C@@H](N)Cc1c[nH]cn1)[C@@H](C)O)[C@@H](C)O)C(=O)N[C@@H](CO)C(=O)N[C@@H](CCCCN)C(=O)N[C@@H](Cc1ccc(O)cc1)C(=O)N[C@@H](CC(C)C)C(=O)N[C@@H](CC(=O)O)C(=O)N[C@@H](CCC(=O)O)C(=O)N[C@@H](CCC(N)=O)C(=O)N[C@@H](C)C(=O)N[C@@H](C)C(=O)N[C@@H](CCCCN)C(=O)N[C@@H](CCC(=O)O)C(=O)N[C@@H](Cc1ccccc1)C(=O)N[C@H](C(=O)N[C@@H](CS)C(=O)N[C@@H](Cc1c[nH]c2ccccc12)C(=O)N[C@@H](CC(C)C)C(=O)N[C@@H](CC(C)C)C(=O)N[C@@H](CC(=O)O)C(=O)N[C@H](C(N)=O)[C@@H](C)O)[C@@H](C)CC)C(=O)O` [compound 64]: the midpoint of the response in experiment [1], the EC50, lay at 2.82 nM. Still for that read-out and setting: next, `CCCCCCCCCCCCCCCC(=O)N[C@@H](CCC(=O)NCCCC[C@H](NC(=O)[C@H](CC(=O)O)NC(=O)[C@H](CO)NC(=O)[C@@H](NC(=O)[C@H](Cc1ccccc1)NC(=O)[C@@H](NC(=O)CNC(=O)[C@H](CCC(N)=O)NC(=O)[C@@H](CO)NC(=O)[C@@H](N)Cc1c[nH]cn1)[C@@H](C)O)[C@@H](C)O)C(=O)N[C@@H](CO)C(=O)N[C@@H](CCCCN)C(=O)N[C@@H](Cc1ccc(O)cc1)C(=O)N[C@@H](CC(C)C)C(=O)N[C@@H](CC(=O)O)C(=O)N[C@@H](CCC(=O)O)C(=O)N[C@@H](CCC(N)=O)C(=O)N[C@@H](C)C(=O)N[C@@H](C)C(=O)N[C@@H](CCCCN)C(=O)N[C@@H](CCC(=O)O)C(=O)N[C@@H](Cc1ccccc1)C(=O)N[C@H](C(=O)N[C@@H](CS)C(=O)N[C@@H](Cc1c[nH]c2ccccc12)C(=O)N[C@@H](CC(C)C)C(=O)N[C@@H](CC(C)C)C(=O)N[C@@H](CC(=O)O)C(=O)N[C@H](C(=O)N[C@@H](CCC(=O)O)C(N)=O)[C@@H](C)O)[C@@H](C)CC)C(=O)O` [compound 65]: 47.1 nM.
